Assay [1] has as its target acetylcholinesterase (AChE, E.C. 3.1.1.7, Type V-S) (Electrophorus electricus, UniProt O42275). As to the kind of experiment: AChE inhibition, modified Ellman method. The class given is biochemical, electric eel. Conditions: read-out: % Inhibition at 50 µM, AChE, Mean ± SE. Background: Ellman's reagent forms a yellow product with free thiols.
The next assay deals with AChE (Electrophorus electricus, UniProt O42275). Kind of assay: Enzyme kinetic study. The class given is biochemical, electric eel.
Sequence of AChE (O42275 24-633): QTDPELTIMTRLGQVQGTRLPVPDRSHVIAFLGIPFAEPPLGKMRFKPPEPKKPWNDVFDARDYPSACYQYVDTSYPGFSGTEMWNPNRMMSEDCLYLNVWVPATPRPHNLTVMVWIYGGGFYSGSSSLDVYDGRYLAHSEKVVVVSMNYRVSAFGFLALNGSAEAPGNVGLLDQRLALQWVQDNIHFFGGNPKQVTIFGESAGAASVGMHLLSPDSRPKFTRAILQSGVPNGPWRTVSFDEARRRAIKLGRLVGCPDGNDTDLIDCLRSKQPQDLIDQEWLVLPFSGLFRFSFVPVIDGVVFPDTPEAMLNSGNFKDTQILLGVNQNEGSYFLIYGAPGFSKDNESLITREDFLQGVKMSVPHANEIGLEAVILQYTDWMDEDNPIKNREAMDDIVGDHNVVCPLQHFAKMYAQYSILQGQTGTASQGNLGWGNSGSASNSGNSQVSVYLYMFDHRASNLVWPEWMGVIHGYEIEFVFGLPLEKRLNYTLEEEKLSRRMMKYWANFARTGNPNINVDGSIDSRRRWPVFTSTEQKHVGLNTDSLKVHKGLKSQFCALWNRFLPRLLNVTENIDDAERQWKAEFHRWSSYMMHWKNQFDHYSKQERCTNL

pKi: −log10 of the molar value.

Sequence of acetylcholinesterase (AChE, E.C. 3.1.1.7, Type V-S) (O42275 24-633): as above

With `COc1ccc(OC)c(/C=C/C(=O)N2CCCC(NC(=O)OC(C)(C)C)C2)c1` (stereo not shown) [5o, tert-butyl (E)-(1-(3-(2,5-dimethoxyphenyl)acryloyl)piperidin-3-yl)carbamate], the inhibition (as a rule, the drop in the measured response relative to a control, in per cent) at 50 µM in assay [1] came to 44.1%.
As for `CC(C)(C)OC(=O)NC1CCCN(C(=O)/C=C/c2ccccc2Cl)C1` (stereo not shown) [5b, tert-butyl (E)-(1-(3-(2-chlorophenyl)acryloyl)piperidin-3-yl)carbamate], the pKi (as a rule, the negative decadic logarithm of the Ki, by convention in mol/L) on AChE is 5.00. In addition, on AChE (AChE, 1/Vmax vs inhibitor concentration), the “secondary inhibition constant (Kis)” value is given as 36.16 µM. Moreover, at AChE (AChE, Lineweaver-Burk plot), the type of inhibition result is on record as “mix-type inhibition”.
